The supplement of paper PMC10307832

What was measured:
Assay in all cases: relative viability (nuclei count vs DMSO), 5 days (fraction); higher = more cells survive
[1] = compound: C1COCCN1C2=NC(=NC3=C2OC4=C3C=CC=N4)C5=CC(=CC=C5)NC(=O)C6=CN=C(C=C6)N + C[C@]1(O)C[C@@H](c2nc(-c3ccc4ccc(-c5ccccc5)nc4c3)c3c(N)nccn32)C1 [Linsitinib] (partner 1 µM)
Summary of the method: (§1)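 Relative viability divides the nuclei count in treated wells by that in vehicle wells. Lung cancer cell lines were seeded in 1536-well plates, dosed by pin tool the next day, and fixed and stained after 5 days in one step with final 0.05% Triton X-100, 1% formaldehyde and 1 ug/ml Hoechst. Dosing was a single drug or a fixed anchor-drug dose plus five library-drug doses (not always all listed) in √10 steps, and values are medians of duplicate plates imaged at 4×.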

[2] = compound: C1COCCN1C2=NC(=NC3=C2OC4=C3C=CC=N4)C5=CC(=CC=C5)NC(=O)C6=CN=C(C=C6)N + COc1cc2c(Oc3ccc(NC(=O)C4(C(=O)Nc5ccc(F)cc5)CC4)cc3F)ccnc2cc1OCCCN1CCOCC1 [Foretinib] (partner 0.25 µM)
Summary of the method: as §1

Entinostat + Tozasertib = compound: Nc1ccccc1NC(=O)c1ccc(CNC(=O)OCc2cccnc2)cc1 [Entinostat] + Cc1cc(Nc2cc(N3CCN(C)CC3)nc(Sc3ccc(NC(=O)C4CC4)cc3)n2)n[nH]1 [Tozasertib] (partner 0.1 µM)
Summary of the method: as §1

Entinostat + Linsitinib = compound: Nc1ccccc1NC(=O)c1ccc(CNC(=O)OCc2cccnc2)cc1 [Entinostat] + C[C@]1(O)C[C@@H](c2nc(-c3ccc4ccc(-c5ccccc5)nc4c3)c3c(N)nccn32)C1 [Linsitinib] (partner 1 µM)
Summary of the method: as §1

Cell Line | relative viability ([1]; first compound 0.02 µM) | relative viability ([1]; first compound 0.06325 µM) | relative viability ([1]; first compound 0.2 µM) | relative viability ([1]; first compound 0.6325 µM) | relative viability ([1]; first compound 2 µM) | relative viability ([2]; first compound 0.02 µM) | relative viability ([2]; first compound 0.06325 µM) | relative viability ([2]; first compound 0.2 µM) | relative viability ([2]; first compound 0.6325 µM) | relative viability ([2]; first compound 2 µM) | relative viability (Entinostat + Tozasertib; first compound 0.02 µM) | relative viability (Entinostat + Tozasertib; first compound 0.06325 µM) | relative viability (Entinostat + Tozasertib; first compound 0.2 µM) | relative viability (Entinostat + Tozasertib; first compound 0.6325 µM) | relative viability (Entinostat + Tozasertib; first compound 2 µM) | relative viability (Entinostat + Linsitinib; first compound 0.02 µM) | relative viability (Entinostat + Linsitinib; first compound 0.06325 µM) | relative viability (Entinostat + Linsitinib; first compound 0.2 µM) | relative viability (Entinostat + Linsitinib; first compound 0.6325 µM) | relative viability (Entinostat + Linsitinib; first compound 2 µM)
LU99A | 0.517 | 0.583 | 0.435 | 0.353 | 0.236 | 0.824 | 0.821 | 0.75 | 0.582 | 0.497 | 0.281 | 0.294 | 0.292 | 0.239 | 0.228 | 0.505 | 0.552 | 0.479 | 0.394 | 0.348
LXF-289 | 1.02 | 1.07 | 0.975 | 0.986 | 0.76 | 0.994 | 1 | 0.985 | 0.952 | 0.747 | 0.203 | 0.172 | 0.204 | 0.17 | 0.145 | 0.982 | 0.985 | 0.917 | 0.785 | 0.632
NCI-H23 | 0.6 | 0.576 | 0.499 | 0.534 | 0.497 | 0.85 |  | 0.943 | 0.815 | 0.493 | 0.364 | 0.264 | 0.292 | 0.193 | 0.121 | 0.723 | 0.567 | 0.782 | 0.531 | 0.399
NCI-H322M | 0.817 | 0.981 | 0.884 | 0.924 | 0.759 | 0.919 | 0.918 | 0.935 | 0.849 | 0.686 | 0.505 | 0.555 | 0.519 | 0.461 | 0.448 | 0.885 | 1.04 | 0.883 | 0.89 | 0.65
NCI-H358 | 0.671 | 0.827 | 0.674 | 0.721 | 0.584 |  | 0.721 | 0.537 | 0.68 | 0.477 | 0.0897 | 0.0965 | 0.0816 | 0.0915 | 0.0853 | 0.699 | 0.905 | 0.934 | 0.503 | 0.238
NCI-H441 | 0.522 | 0.609 | 0.569 | 0.534 | 0.357 | 1.13 | 0.918 | 0.786 | 0.84 | 0.493 | 0.593 | 0.483 | 0.425 | 0.275 | 0.224 | 0.483 | 0.494 | 0.524 | 0.262 | 0.13
NCI-H460 | 0.839 | 0.959 | 0.834 | 0.583 | 0.225 | 1.11 | 1.23 | 1.12 | 1.08 | 0.545 | 0.395 | 0.0956 | 0.0498 | 0.0451 | 0.0275 | 0.664 | 0.685 | 0.378 | 0.0221 | 0.0142
NCI-H520 | 1.09 | 1.08 | 1.07 | 1.08 | 0.373 | 0.839 | 0.742 | 0.669 | 0.798 | 0.469 | 0.47 | 0.441 | 0.38 | 0.331 | 0.325 | 1.03 | 1.05 | 1.09 | 0.897 | 0.412
NCI-H596 | 0.959 | 1.15 | 1.1 | 0.96 | 0.727 | 1.13 | 0.813 | 0.893 | 0.709 | 0.616 | 0.76 | 0.93 | 1.14 | 0.621 | 0.503 | 1.08 | 1.17 | 0.958 | 0.9 | 0.799
NCI-H647 | 1.11 | 1.27 | 1.19 | 0.901 | 0.588 | 1.17 | 1.16 | 1.13 | 1.14 | 0.667 | 0.32 | 0.214 | 0.228 | 0.0707 | 0.0371 | 1.23 | 1.14 | 0.932 | 0.327 | 0.121
NCI-H650 | 0.876 | 0.876 | 0.857 | 0.837 | 0.659 | 1 | 1.01 | 1.06 | 1.03 | 0.919 | 0.739 | 0.652 | 0.555 | 0.482 | 0.212 | 1.03 | 1.16 | 0.902 | 0.552 | 0.243
NCI-H661 | 0.533 | 0.645 | 0.645 | 0.421 | 0.386 | 1 | 1.05 | 1.02 | 0.999 | 0.742 | 0.339 | 0.332 | 0.282 | 0.334 | 0.396 | 0.481 | 0.769 | 0.678 | 0.725 | 0.624
NCI-H727 | 0.284 | 0.31 | 0.24 | 0.257 | 0.256 | 0.945 | 0.807 | 0.82 | 0.865 | 0.676 | 0.605 | 0.647 | 0.497 | 0.392 | 0.403 | 0.306 | 0.344 | 0.35 | 0.255 | 0.0975
NCI-H838 | 0.977 | 1.08 | 0.933 | 0.78 | 0.371 | 1.06 | 0.987 | 0.952 | 0.884 | 0.487 | 0.287 | 0.261 | 0.239 | 0.146 | 0.127 | 1.11 | 1.1 | 1.11 | 0.594 | 0.279
NCI-H1355 | 0.871 | 0.933 | 0.815 | 0.789 | 0.68 | 0.995 | 1.12 | 1.1 | 0.927 | 0.642 | 0.525 | 0.484 | 0.412 | 0.303 | 0.275 | 0.811 | 0.769 | 0.653 | 0.551 | 0.468
NCI-H1395 | 0.901 | 1 | 1.08 | 1.19 | 0.875 | 0.919 | 0.909 | 0.924 | 0.984 | 0.894 | 0.668 | 0.721 | 0.696 | 0.496 | 0.47 | 1.1 | 1.13 | 1.01 | 0.885 | 0.594
